Source: ChEMBL document CHEMBL3864140, “Melanogenesis inhibitory activity of a 7-O-9'-linked neolignan from Alpinia galanga fruit” (Bioorg Med Chem, 2016)
Blank lines part the entries; values can stand above or below the molecule they belong to.

Experiments:
[1] = Cytotoxicity against theophylline-stimulated mouse B16-4A5 cells assessed as cell viability at 1 uM after 72 hrs by MTT assay relative to control; assay type: toxicity; conditions: theophylline-stimulated B16-4A5 cells, read-out: Activity
[2] = Antimelanogenic activity in theophylline-stimulated mouse B16-4A5 cells assessed as inhibition of melanogenesis after 72 hrs relative to control; assay type: functional, cell-based
[3] = Antimelanogenic activity in theophylline-stimulated mouse B16-4A5 cells assessed as inhibition of melanogenesis at 1 uM after 72 hrs relative to control; assay type: functional; conditions: B16-4A5, 72 h
[4] = Antimelanogenic activity in theophylline-stimulated mouse B16-4A5 cells assessed as inhibition of melanogenesis at 3 uM after 72 hrs relative to control; assay type: functional; conditions: B16-4A5, 72 h
[5] = Cytotoxicity against theophylline-stimulated mouse B16-4A5 cells assessed as cell viability at 3 uM after 72 hrs by MTT assay relative to control; assay type: toxicity; conditions: theophylline-stimulated B16-4A5 cells, read-out: Activity
[6] = Antimelanogenic activity in theophylline-stimulated mouse B16-4A5 cells assessed as inhibition of melanogenesis at 10 uM after 72 hrs relative to control; assay type: functional; conditions: B16-4A5, 72 h
[7] = Antimelanogenic activity in theophylline-stimulated mouse B16-4A5 cells assessed as inhibition of melanogenesis at 0.3 uM after 72 hrs relative to control; assay type: functional; conditions: B16-4A5, 72 h
[8] = Cytotoxicity against theophylline-stimulated mouse B16-4A5 cells assessed as cell viability at 10 uM after 72 hrs by MTT assay relative to control; assay type: toxicity; conditions: theophylline-stimulated B16-4A5 cells, read-out: Activity
[9] = Cytotoxicity against theophylline-stimulated mouse B16-4A5 cells assessed as cell viability at 0.3 uM after 72 hrs by MTT assay relative to control; assay type: toxicity; conditions: theophylline-stimulated B16-4A5 cells, read-out: Activity
[10] = Cytotoxicity against theophylline-stimulated mouse B16-4A5 cells assessed as cell viability at 100 uM after 72 hrs by MTT assay relative to control; assay type: toxicity; conditions: theophylline-stimulated B16-4A5 cells, read-out: Activity
[11] = cells; conditions: Mus musculus, B16-4A5, 72 h, read-out: INH
[12] = Cytotoxicity against theophylline-stimulated mouse B16-4A5 cells assessed as cell viability at 30 uM after 72 hrs by MTT assay relative to control; assay type: toxicity; conditions: theophylline-stimulated B16-4A5 cells, read-out: Activity
[13] = cells; conditions: Mus musculus, B16-4A5, 72 h, read-out: INH; remark: listed apart in the source
Description: Antimelanogenic activity in theophylline-stimulated mouse B16-4A5 cells assessed as inhibition of melanogenesis at 30 uM after 72 hrs relative to control

SMILES: C=C[C@@H](OC/C=C/c1ccc(O)cc1)c1ccc(O)cc1
- viability at 72 h, 1 µM [1]: 107%
- IC50 [2]: 3.2 µM
- inhibition at 1 µM [3]: 47.1%
- inhibition at 3 µM [4]: 47.7%
- viability at 72 h, 3 µM [5]: 103%
- inhibition at 10 µM [6]: 80.2%
- inhibition at 0.3 µM [7]: 32.9%
- viability at 72 h, 10 µM [8]: 93.9%
- viability at 72 h, 0.3 µM [9]: 106%

SMILES: C=C[C@H](O)c1ccc(OC(C)=O)cc1
- viability at 72 h, 100 µM [10]: 114%
- IC50 [2]: 88.5 µM
- inhibition at 100 µM [11]: 56.7%
- inhibition at 3 µM [4]: -6.7%
- viability at 72 h, 3 µM [5]: 87.9%
- viability at 72 h, 30 µM [12]: 101%
- inhibition at 10 µM [6]: -0.4%
- viability at 72 h, 10 µM [8]: 97.2%
- inhibition at 30 µM [13]: 14.9%

SMILES: CCC(=O)c1ccc(O)cc1 [PAROXYPROPIONE]
- viability at 72 h, 100 µM [10]: 125%
- inhibition at 100 µM [11]: -3.6%
- inhibition at 3 µM [4]: 4.1%
- viability at 72 h, 3 µM [5]: 111%
- viability at 72 h, 30 µM [12]: 117%
- inhibition at 10 µM [6]: -3.6%
- viability at 72 h, 10 µM [8]: 116%
- inhibition at 30 µM [13]: -1.9%

SMILES: CC[C@H](OC(C)=O)c1ccc(OC(C)=O)cc1
- viability at 72 h, 100 µM [10]: 94.5%
- IC50 [2]: 10.5 µM
- inhibition at 100 µM [11]: 105%
- inhibition at 3 µM [4]: 41.6%
- viability at 72 h, 3 µM [5]: 106%
- viability at 72 h, 30 µM [12]: 96.5%
- inhibition at 10 µM [6]: 44.5%
- viability at 72 h, 10 µM [8]: 105%
- inhibition at 30 µM [13]: 74.1%

SMILES: COc1cc(/C=C/C=O)ccc1O [CONIFERYL ALDEHYDE]
- viability at 72 h, 100 µM [10]: 44.7%
- IC50 [2]: 15.3 µM
- inhibition at 100 µM [11]: 87.7%
- inhibition at 3 µM [4]: 17%
- viability at 72 h, 3 µM [5]: 101%
- viability at 72 h, 30 µM [12]: 74.2%
- inhibition at 10 µM [6]: 23.7%
- viability at 72 h, 10 µM [8]: 85.8%
- inhibition at 30 µM [13]: 100%

SMILES: C=CC(OC(C)=O)c1ccc(OC(C)=O)cc1 (racemic)
- viability at 72 h, 1 µM [1]: 104%
- IC50 [2]: 4.4 µM
- inhibition at 1 µM [3]: 4.4%
- inhibition at 3 µM [4]: 35.1%
- viability at 72 h, 3 µM [5]: 108%
- inhibition at 10 µM [6]: 103%
- inhibition at 0.3 µM [7]: 5%
- viability at 72 h, 10 µM [8]: 31.8%
- viability at 72 h, 0.3 µM [9]: 102%

SMILES: CC(=O)OC/C=C/c1ccc(O)cc1
- viability at 72 h, 100 µM [10]: 90.1%
- inhibition at 100 µM [11]: -13.4%
- inhibition at 3 µM [4]: 4.1%
- viability at 72 h, 3 µM [5]: 99.2%
- viability at 72 h, 30 µM [12]: 96.1%
- inhibition at 10 µM [6]: 0%
- viability at 72 h, 10 µM [8]: 100%
- inhibition at 30 µM [13]: -3%

Continued, in another order:

- IC50 [2]: 16.1 µM
SMILES: COc1cc(/C=C/CO)ccc1O [CONIFERYL ALCOHOL]
- viability at 72 h, 100 µM [10]: 33.1%
- inhibition at 100 µM [11]: -3%
- inhibition at 3 µM [4]: 35.9%
- viability at 72 h, 3 µM [5]: 98.9%
- viability at 72 h, 30 µM [12]: 88%
- inhibition at 10 µM [6]: 44.5%
- viability at 72 h, 10 µM [8]: 98.2%
- inhibition at 30 µM [13]: 64.2%

- IC50 [2]: 19.5 µM
SMILES: COC/C=C/c1ccc(O)cc1
- viability at 72 h, 100 µM [10]: 107%
- inhibition at 100 µM [11]: 81.7%
- inhibition at 3 µM [4]: 18.2%
- viability at 72 h, 3 µM [5]: 109%
- viability at 72 h, 30 µM [12]: 93.6%
- inhibition at 10 µM [6]: 25.1%
- viability at 72 h, 10 µM [8]: 104%
- inhibition at 30 µM [13]: 56.9%

- IC50 [2]: 18.3 µM
SMILES: O=C/C=C/c1ccc(O)cc1 [p-HYDROXYCINNAMALDEHYDE]
- viability at 72 h, 100 µM [10]: 66.8%
- inhibition at 100 µM [11]: 104%
- inhibition at 3 µM [4]: 8.9%
- viability at 72 h, 3 µM [5]: 103%
- viability at 72 h, 30 µM [12]: 94.3%
- inhibition at 10 µM [6]: 12.8%
- viability at 72 h, 10 µM [8]: 108%
- inhibition at 30 µM [13]: 67.4%

- IC50 [2]: > 100 µM
SMILES: OC/C=C/c1ccc(O)cc1
- viability at 72 h, 100 µM [10]: 110%
- inhibition at 100 µM [11]: 46.9%
- inhibition at 3 µM [4]: -3.4%
- viability at 72 h, 3 µM [5]: 98.9%
- viability at 72 h, 30 µM [12]: 116%
- inhibition at 10 µM [6]: -2.8%
- viability at 72 h, 10 µM [8]: 98.4%
- inhibition at 30 µM [13]: 35.8%
